According to the CheMixHub viscosity set:
Several values for one entry are separate records, joined by “and”; a condition that tells them apart may be missing. Identical values can stand only once.

Experiments:
[1] = xn = mol fraction of the nth substance listed; conditions: 101.33 kPa

CC[n+]1ccccc1.N#C[N-]C#N
100 kPa
Conditions | viscosity [mPa·s]
293.15 K | 22.1
298.15 K | 18.92
303.15 K | 16.44
308.15 K | 14.31
313.15 K | 12.48
318.15 K | 10.98

CO
Conditions | viscosity
293.15 K, 100 kPa | 0.587 mPa·s and 0.55 mPa·s and 0.58 mPa·s
293.31 K, 101 kPa | 0.589 mPa·s
297.8 K, 101 kPa | 0.5495 mPa·s
298 K, 101.3 kPa | 0.59 mPa·s
298.15 K, 100 kPa | 0.5417 mPa·s
298.15 K, 101.33 kPa | 0.5365 mPa·s and 0.6152 mPa·s and 0.562 mPa·s
299 K, 101 kPa | 0.8138 mPa·s
303 K, 100 kPa | 0.5211 mPa·s and 0.5 mPa·s
303 K, 101.3 kPa | 0.5773 mPa·s
303.15 K, 100 kPa | 0.527 mPa·s
303.15 K, 101.33 kPa | 0.5054 mPa·s and 0.541 mPa·s
303.16 K, 101 kPa | 0.56 mPa·s
303.21 K, 101 kPa | 0.511 mPa·s
308.15 K, 100 kPa | 0.498 mPa·s and 0.491 mPa·s and 0.4987 mPa·s
308.15 K, 101.3 kPa | 0.474 mPa·s
308.56 K, 101 kPa | 0.476 mPa·s
313 K, 100 kPa | 0.4373 mPa·s and 0.42 mPa·s
313 K, 101.3 kPa | 0.455 mPa·s
313.15 K, 100 kPa | 0.471 mPa·s and 0.465 mPa·s
313.15 K, 101.33 kPa | 0.4423 mPa·s and 0.463 mPa·s
318.15 K, 100 kPa | 0.448 mPa·s and 0.442 mPa·s and 0.4456 mPa·s
321.15 K, 101.32 kPa | 0.4101 mPa·s
322.15 K, 101.32 kPa | 0.4068 mPa·s
322.9 K, 101 kPa | 0.3997 mPa·s
323.15 K, 100 kPa | 0.3905 mPa·s and 0.428 mPa·s and 0.421 mPa·s
323.15 K, 101.3 kPa | 0.396 mPa·s
323.15 K, 101.32 kPa | 0.401 mPa·s
323.15 K, 101.33 kPa | 0.3907 mPa·s and 0.406 mPa·s

COC(=O)OC
viscosity
Conditions | 293.15 K | 298.15 K | 303.15 K | 308.15 K | 313.15 K | 318.15 K | 323.15 K
100 kPa | 0.62 mPa·s | 0.58 mPa·s | 0.5 mPa·s | 0.47 mPa·s | 0.45 mPa·s and 0.489 mPa·s | 0.43 mPa·s and 0.462 mPa·s | 0.38 mPa·s and 0.437 mPa·s
101 kPa | 0.624 mPa·s | 0.58 mPa·s | 0.55 mPa·s and 0.55 mPa·s | 0.49 mPa·s and 0.519 mPa·s | 0.45 mPa·s and 0.491 mPa·s | 0.4 mPa·s and 0.465 mPa·s | 0.442 mPa·s
101.3 kPa | 0.628 mPa·s | – | 0.553 mPa·s | 0.524 mPa·s | 0.496 mPa·s | – | –
101.33 kPa | – | – | 0.503 mPa·s | 0.474 mPa·s | – | – | –

NCCCN
viscosity
Conditions | 293.15 K | 298.15 K | 303.15 K | 308.15 K | 313.15 K | 318.15 K | 323.15 K
100 kPa | 1.965 mPa·s and 1.96 mPa·s | 1.769 mPa·s and 1.74 mPa·s | 1.506 mPa·s and 1.57 mPa·s | 1.465 mPa·s and 1.39 mPa·s | 1.259 mPa·s and 1.26 mPa·s | 1.181 mPa·s and 1.07 mPa·s | –
101 kPa | – | – | 1.608 mPa·s and 1.594 mPa·s | 1.445 mPa·s and 1.423 mPa·s | 1.306 mPa·s and 1.297 mPa·s | 1.191 mPa·s and 1.181 mPa·s | 1.09 mPa·s and 1.07 mPa·s
101.3 kPa | 2.03 mPa·s | 1.83 mPa·s | 1.62 mPa·s | 1.42 mPa·s | 1.23 mPa·s | 1.13 mPa·s | –
101.33 kPa | 1.93 mPa·s | 1.67 mPa·s | 1.52 mPa·s and 1.594 mPa·s | 1.37 mPa·s and 1.423 mPa·s | 1.22 mPa·s and 1.297 mPa·s | 1.11 mPa·s and 1.181 mPa·s | 1.07 mPa·s

COCCOCCOC + c1ccc2c(c1)CCCC2
viscosity [mPa·s], [1]
Conditions | x1 = 0.1028 | x1 = 0.1977 | x1 = 0.3019 | x1 = 0.3993 | x1 = 0.5009 | x1 = 0.666 | x1 = 0.7016 | x1 = 0.7949 | x1 = 0.8987
298.15 K | 1.786 | 1.637 | 1.5 | 1.396 | 1.294 | 1.197 | 1.144 | 1.087 | 1.032
303.15 K | 1.619 | 1.487 | 1.367 | 1.275 | 1.185 | 1.071 | 1.05 | 1 | 0.95
308.15 K | 1.472 | 1.355 | 1.249 | 1.17 | 1.087 | 0.984 | 0.967 | 0.922 | 0.879
313.15 K | 1.348 | 1.245 | 1.15 | 1.078 | 1.004 | 0.913 | 0.897 | 0.859 | 0.815
